The results in this text go back to patent US11919855B2, “Substituted pyrrolidones and piperidones as small molecule inhibitors of EZH2 and EED protein binding” (Northwestern University, priority 2021, dated 2024).

Broadly, the IC50 is the point on the concentration scale where inhibition reaches its midpoint.

This test deals with EED-EZH2 (Homo sapiens (Human), UniProt O75530). Nature of the test: EED-EZH2 AlphaScreen assay. The class given is binding. To be noted: 8.7 nM EZH2, 5.0 nM EED, read-out: IC50 Potency Code. As for the experimental part: Biological activity of exemplary substituted pyrrolidones and piperidones was determined by the EED-EZH2 AlphaScreen assay according the following methodology.
EZH2 (non-complexed), His-GST-tags
Anti-FLAG AlphaLISA Acceptor Beads
AlphaScreen GSH Donor Beads
Assay Protocol (Calculated for 384 Wells or 1 Plate)
• 1. Thaw EED and EZH2 proteins on ice. • 2. Prepare 1× HMT Buffer 2: • 1.5 mL of 4× HMT Buffer 2+4.5 mL ddH2O. • 3. Prepare 1.2× EED-EZH2 solution in 1× HMT Buffer 2: 3.4 mL total • 2.1 uL of EED (0.41 mg/mL, 8.04 uM, 1:1608 dilution)+14 uL of EZH2 (0.24 mg/mL, 2.11 uM, 1:243 dilution)+3.384 mL of 1× HMT Buffer 2 • 4. Prepare 1.2× EZH2 solution in 1× HMT Buffer 2 (positive control): 0.168 mL total • 0.69 uL of EZH2 (0.24 mg/mL, 2.11 uM, 1:243 dilution)+167 uL of 1× HMT Buffer 2 • 5. Add 10 μL of 1.2× EED-EZH2 or 1.2× EZH2 solution to each well. • 6. Add compounds in DMSO via Echo transfer and 30 nL DMSO for control wells. • 7. Centrifuge at 15,000 rpm for 10 seconds and allow to incubate at rt for 1 hour. Step Two • 1. Prepare 6× Anti-FLAG and GSH Donor beads in 1× HMT Buffer 2 in the dark: 1 mL total • 10 uL of Anti-FLAG (1:100 dilution)+5 uL of GSH Donor (1:200 dilution)+985 uL of 1× HMT Buffer 2 • 2. Add 2 μL of bead solution to each well. • 3. Centrifuge at 15,000 rpm for 10 seconds and allow to incubate at rt for 1 hour in the dark. • 4. Read plate. Final Concentrations: • 12 μL volume per well • 8.7 nM EZH2 • 5.0 nM EED • DMSO<0.5% Calculations: • 1. Average EZH2 only wells (positive control) and subtract from all other wells. • 2. Average EED-EZH2 only wells (negative control) to indicate 100% signal or 0% inhibition. • 3. Normalize each well to the average 100% signal from step 2. • 4. Report either as normalized % inhibition or normalized % signal. • Use GraphPad to Calculate IC50.
In general terms: In Alpha technology, singlet oxygen from a donor bead excites a nearby acceptor bead.

Sequence of EED-EZH2 (O75530 2-441): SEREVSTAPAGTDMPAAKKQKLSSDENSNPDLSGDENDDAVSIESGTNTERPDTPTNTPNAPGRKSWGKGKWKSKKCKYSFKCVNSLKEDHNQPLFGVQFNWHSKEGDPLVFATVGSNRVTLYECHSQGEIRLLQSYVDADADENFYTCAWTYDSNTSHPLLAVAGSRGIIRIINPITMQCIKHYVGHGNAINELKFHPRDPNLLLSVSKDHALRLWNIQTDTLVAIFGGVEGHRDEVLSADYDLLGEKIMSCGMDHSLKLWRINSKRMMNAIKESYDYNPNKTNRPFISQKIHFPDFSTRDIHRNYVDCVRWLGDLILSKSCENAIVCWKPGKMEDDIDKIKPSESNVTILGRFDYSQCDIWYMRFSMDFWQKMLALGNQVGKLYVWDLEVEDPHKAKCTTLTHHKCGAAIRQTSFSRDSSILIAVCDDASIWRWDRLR

In the case of `CC(=O)N1CCCC(CN2CC(NC(=O)c3cc(C)ccc3O)CC2=O)C1` (stereo not drawn) [NUCC-0202970], the IC50 lay within 10 to 50 µM.

In the case of `Cc1ccc(O)c(C(=O)NC2CCC(=O)N(Cc3ccccc3C(F)(F)F)C2)c1` (stereo not drawn) [NUCC-0202971], the IC50 lay within 1 to 10 µM.

`COc1ccc(CN2C[C@@H](NC(=O)c3cc(C)ccc3O)CC2=O)c(OC)c1` [NUCC-0202972]: the IC50 fell in the range of 10 to 50 µM.

For the molecule `Cc1ccc(O)c(C(=O)N[C@H]2CC(=O)N(Cc3ccccc3Cl)C2)c1` [NUCC-0202973], the IC50 was 10 to 50 µM.

Consider `Cc1ccc(O)c(C(=O)N[C@H]2CC(=O)N(Cc3ccc(C(F)(F)F)cc3)C2)c1` [NUCC-0202974], for which the IC50 was over 50 µM.

Regarding `Cc1ccc(O)c(C(=O)N[C@H]2CC(=O)N(Cc3ccc(Cl)c(Cl)c3)C2)c1` [NUCC-0202975], the IC50 lay in the range of 10 to 50 µM.

Turning to `Cc1ccc(O)c(C(=O)N[C@H]2CC(=O)N(C3CCc4ccccc43)C2)c1` (stereo partly drawn) [NUCC-0202976], the IC50 was over 50 µM.

Consider `Cc1ccc(O)c(C(=O)N[C@@H]2CC(=O)N(Cc3ccc(Cl)c(Cl)c3)C2)c1` [NUCC-0202977], for which the IC50 lay in the range of 10 to 50 µM.

As to `Cc1ccc(O)c(C(=O)N[C@@H]2CC(=O)N(Cc3ccc(C(F)(F)F)cc3)C2)c1` [NUCC-0202978], the half-maximal inhibitory concentration (IC50) was over 50 µM.

With `Cc1ccc(O)c(C(=O)N[C@H]2CC(=O)N(C3C=Cc4ccccc43)C2)c1` (stereo partly drawn) [NUCC-0202979], the IC50 fell in the range of 10 to 50 µM.

For the molecule `O=C(N[C@H]1CC(=O)N(Cc2ccccc2C(F)(F)F)C1)c1cc(C(F)(F)F)ccc1O` [NUCC-0223624], the IC50 was under 1 µM.

For `O=C(NC1CC(=O)N(Cc2cccc(C(F)(F)F)c2)C1)c1cc(C(F)(F)F)ccc1O` (stereo not drawn) [NUCC-0223625], the IC50 is under 1 µM.

Turning to `CC1(C)C(=O)N(Cc2ccccc2C(F)(F)F)C[C@H]1NC(=O)c1cc(C(F)(F)F)ccc1O` [NUCC-0223626], the IC50 was in the range of 1 to 10 µM.

For the molecule `O=C(NCC1CC(=O)N(Cc2ccccc2C(F)(F)F)C1)c1cc(C(F)(F)F)ccc1O` (stereo not drawn) [NUCC-0223627], the IC50 is under 1 µM.

As for `O=C(N[C@@H]1CC(=O)N(Cc2ccccc2C(F)(F)F)C1)c1cc(C(F)(F)F)ccc1O` [NUCC-0223628], the IC50 was under 1 µM.

As for `CC1(C)C(=O)N(Cc2ccccc2C(F)(F)F)CC1NC(=O)c1cc(C(F)(F)F)ccc1O` (stereo not drawn) [NUCC-0223629], the IC50 lay in the range of 10 to 50 µM.

Turning to `O=C1CC(Nc2ncnc3ccc(C(F)(F)F)cc23)CN1Cc1ccccc1C(F)(F)F` (stereo not drawn) [NUCC-0223632], the IC50 is over 50 µM.

In the case of `Nc1ccc(C(F)(F)F)cc1C(=O)NC1CC(=O)N(Cc2ccccc2C(F)(F)F)C1` (stereo not drawn) [NUCC-0223633], the IC50 is over 50 µM.

With `Nc1ccc(F)cc1C(=O)NC1CC(=O)N(Cc2ccccc2C(F)(F)F)C1` (stereo not drawn) [NUCC-0223634], the half-inhibitory concentration (IC50) is over 50 µM.

Turning to `Nc1ccc(Cl)cc1C(=O)NC1CC(=O)N(Cc2ccccc2C(F)(F)F)C1` (stereo not drawn) [NUCC-0223635], the IC50 was over 50 µM.

With `O=C(NC1CCC(=O)N(Cc2ccccc2C(F)(F)F)C1)c1cc(C(F)(F)F)ccc1O` (stereo not drawn) [NUCC-0223818], the concentration for half-maximal inhibition (IC50) is 1 to 10 µM.

Turning to `O=C(NC1CCC(=O)N(Cc2ccccc2C(F)(F)F)C1)c1cc(Cl)ccc1O` (stereo not drawn) [NUCC-0223819], the IC50 is 1 to 10 µM.

Turning to `O=C(NC1CCC(=O)N(Cc2ccccc2C(F)(F)F)C1)c1ccc(C(F)(F)F)cc1O` (stereo not drawn) [NUCC-0223820], the concentration for half-maximal inhibition (IC50) was over 50 µM.

For the molecule `O=C(NC1CCN(Cc2ccccc2C(F)(F)F)C1=O)c1cc(C(F)(F)F)ccc1O` (stereo not drawn) [NUCC-0223821], the half-maximal inhibitory concentration (IC50) was under 1 µM.

As for `O=C(NC1CCN(Cc2ccccc2C(F)(F)F)C1=O)c1ccc(C(F)(F)F)cc1O` (stereo not drawn) [NUCC-0223822], the IC50 was over 50 µM.

For `O=C(NC1CCN(Cc2ccccc2C(F)(F)F)C1=O)c1cccc(C(F)(F)F)c1O` (stereo not drawn) [NUCC-0223823], the IC50 is over 50 µM.

Regarding `O=C(NC1CCN(Cc2ccccc2C(F)(F)F)C1=O)c1cc(Cl)ccc1O` (stereo not drawn) [NUCC-0223824], the IC50 was over 50 µM.

Take `O=C1C(Nc2ncnc3ccc(C(F)(F)F)cc23)CCN1Cc1ccccc1C(F)(F)F` (stereo not drawn) [NUCC-0223825]: the IC50 is over 50 µM.

`O=C1CCC(Nc2ncnc3ccc(C(F)(F)F)cc23)CN1Cc1ccccc1C(F)(F)F` (stereo not drawn) [NUCC-0223826]: the IC50 is over 50 µM.

As to `O=C(NC1CCN(Cc2cccc(C(F)(F)F)c2)C1=O)c1cc(C(F)(F)F)ccc1O` (stereo not drawn) [NUCC-0226232], the IC50 lay in the range of 1 to 10 µM.

As for `O=C(NCC1CC(=O)N(Cc2cccc(C(F)(F)F)c2)C1)c1cc(C(F)(F)F)ccc1O` (stereo not drawn) [NUCC-0226233], the 50% inhibitory concentration (IC50) is under 1 µM.

For `O=C(N[C@H]1CC(=O)N(Cc2cccc(C(F)(F)F)c2)C1)c1cc(C(F)(F)F)ccc1O` [NUCC-0226234], the IC50 was 1 to 10 µM.

As to `O=C(N[C@@H]1CC(=O)N(Cc2cccc(C(F)(F)F)c2)C1)c1cc(C(F)(F)F)ccc1O` [NUCC-0226235], the IC50 was in the range of 1 to 10 µM.

On to `CC1(C)C(=O)N(Cc2cccc(C(F)(F)F)c2)CC1NC(=O)c1cc(C(F)(F)F)ccc1O` (stereo not drawn) [NUCC-0226236], for which the IC50 is under 1 µM.

For the molecule `COC(=O)c1ccccc1CN1CC(NC(=O)c2cc(C(F)(F)F)ccc2O)CCC1=O` (stereo not drawn) [NUCC-0226237], the IC50 fell in the range of 1 to 10 µM.

As to `O=C(N[C@H]1CCN(Cc2cccc(C(F)(F)F)c2)C1=O)c1cc(C(F)(F)F)ccc1O` [NUCC-0226238], the 50% inhibitory concentration (IC50) lay within 1 to 10 µM.

`O=C(NCC1CCC(=O)N1Cc1cccc(C(F)(F)F)c1)c1cc(C(F)(F)F)ccc1O` (stereo not drawn) [NUCC-0226240]: the IC50 lay within 1 to 10 µM.

As to `O=C(NC[C@@H]1CCC(=O)N1Cc1cccc(C(F)(F)F)c1)c1cc(C(F)(F)F)ccc1O` [NUCC-0226241], the IC50 fell in the range of 1 to 10 µM.

On to `O=C(NC[C@H]1CCC(=O)N1Cc1cccc(C(F)(F)F)c1)c1cc(C(F)(F)F)ccc1O` [NUCC-0226242], for which the IC50 was in the range of 1 to 10 µM.

Turning to `O=C(NC[C@H]1CC(=O)N(Cc2cccc(F)c2)C1)c1cc(C(F)(F)F)ccc1O` [NUCC-0226243], the IC50 was under 1 µM.

For the molecule `O=C(NC[C@@H]1CC(=O)N(Cc2cccc(C(F)(F)F)c2)C1)c1cc(C(F)(F)F)ccc1O` [NUCC-0226244], the IC50 was under 1 µM.

On to `O=C(N[C@@H]1CCN(Cc2cccc(C(F)(F)F)c2)C1=O)c1cc(C(F)(F)F)ccc1O` [NUCC-0226245], for which the IC50 fell in the range of 1 to 10 µM.
